Data: patent US12479894B2, “Pea peptide with auxiliary hypoglycemic function and preparation method thereof” (CHINA NATIONAL RESEARCH INSTITUTE OF FOOD & FERMENTATION …, priority 2019, dated 2025)

Experiments:
Type in all cases: in vivo
Kunming mice [1] = experiment: Detection of fasting blood glucose level in high-fat diet / streptozotocin diabetic mice; conditions: FIG. 11; gavage 28 days; pea peptides 1,600 mg/kg BW, metformin 185 mg/kg BW; AUC of days 1, 7, 14, 21, 28; versus model group
Protocol: (§1) Hypoglycemic functions of the pea peptide samples were evaluated by using the following method.
(§2) 110 Kunming mice were weighed and randomly divided into 11 groups in total: a blank group, a model group, a positive group (metformin 185 mg/kg BW), Example 1-low dose (800 mg/kg BW), Example 1-medium dose (1600 mg/kg BW), Example 1-high dose (3,200 mg/kg BW), Example 2 (1,600 mg/kg BW), Example 3 (1,600 mg/kg BW), Comparative Example 1 (,1600 mg/kg BW), Comparative Example 2 (1,600 mg/kg BW), and Comparative Example 3 (1,600 mg/kg BW), with 10 mice for each group. No any treatment was performed on the blank group; the remaining 10 groups were fed with high-fat diet for 30 days, and then intraperitoneally injected with streptozotocin to induce diabetes, for modeling; except for the blank group and the model group, the positive group was gavaged with metformin, and the experimental group was gavaged with corresponding pea peptide, the gavage was successively performed for 28 days, and the following indicators were detected:
a. Detection of Fasting Blood Glucose Level
After modeling, blood samples were collected from tail tips of 11 groups of mice on days 1, 7, 14, 21 and 28, respectively, to determine concentration of fasting blood glucose, and an area under curve, AUC, was calculated for each group based on the average value of 10 data.

Kunming mice [2] = experiment: Detection of serum insulin level in high-fat diet / streptozotocin diabetic mice; conditions: FIG. 15, last day after 28 days gavage, pea peptides 1,600 mg/kg BW, metformin 185 mg/kg BW, versus model group
Protocol: as §1, §2
c. Detection of Insulin Level
On the last day of the experiment, all mice were killed, blood samples were collected and centrifuged to obtain serum, serum insulin concentrations (μg/L) were detected, and serum insulin concentration was calculated for each group based on the average value of 10 data.

Kunming mice [3] = experiment: Detection of glucose tolerance level (oral glucose 2 g/kg) in high-fat diet / streptozotocin diabetic mice; conditions: FIG. 13; last day, glucose 2 g/kg by gavage 60 min after treatment; AUC 0-120 min; pea peptides 1,600 mg/kg BW, metformin 185 mg/kg BW; versus model group
Protocol: as §1, §2
b. Detection of Glucose Tolerance Level […]

CN(C)C(=N)N=C(N)N [positive group, metformin]
fasting blood glucose level (Kunming mice [1]): significantly reduced fasting blood glucose level
insulin concentration (Kunming mice [2]): significantly improve the insulin concentrations
blood glucose concentration (glucose tolerance capability) (Kunming mice [3]): significantly reduce the blood glucose concentration
